# Values joined by “and” are separate entries in the source; they are usually repeats but may differ in a detail not shown here. Equal values may be shown once.
# Key:
# Type in all cases: cell-based
# [1] = tested on: platelets (platelet rich plasma); test: PAP-8E normal aggregation test, channel to channel data; design: Average % Agg.: dose or concentration left out as unconfirmed; settings: for Average Slope: PAP-8E 340 nM LED; for Average % Agg.: PAP-8E 340 nm LED
# Method: This test method preferably uses a normal platelet rich plasma (PRP) that has 200,000 platelets per cubic mm, with 1 μL volume. At about 6 μm long (oval), the platelets are quite small.
# The normal test volume for the PAP-8E using the UV LED's is 500 μL. Using this volume, and the 200,000 platelets per cubic mm, we can assume there are (500×200,000=) 100,000,000 platelets.
# During testing the beam of radiation passes through about 25% of the PRP. The task then, is to measure how many and how fast this smaller percentage of the PRP reacts and aggregates. This is done by the measurement of the change in transmission between a platelet poor (PPP) blank and the platelet rich sample.
# The channel to channel variation in the PAP-8 E is now less than 11% CV for slope reproducibility and less than 8% CV for % aggregation reproducibility.
# [2] = tested on: platelets; test: Ristocetin dilution test (factor assay), PAP-4 aggregometer with 626 nm LED; settings: PAP-4 626 nm LED; for 100% Avg. / 100% Slope: 100% level
# Source text: (§1) Factor assay test methods benefit from the higher sensitivity of aggregometers utilizing short-wavelength LEDs. In these methods, reference curves are developed with a standard plasma (90-120% activity of the factor) that is serially diluted (down) to an activity of 1.56% (1:64 dilution). Tests are based on the rate of change in optical density.
# Table 1 below and FIGS. 4a and 4b provide test results of a factor assay test: a ristocetin dilution test using an aggregometer with a 626 nm (long-wavelength) LED.
# (§2) This is a quality control test in which ristocetin/plasma are tested to select the best dilution for a lot of ristocetin reagent. The attenuation of samples was measured at 8.5 mg/ml to 11.0 mg/ml concentrations to determine a slope of each sample (see Table 1, 100% slope, 100% Avg.). The slope is known by those skilled in the art as an indicator of the rate of reaction of the ristocetin reagent. Each of the 8.5 mg/ml to 11.0 mg/ml concentration ristocetin/plasma concentrations were also respectively tested diluted to 50% (see Table 1, 50% slope, 50% Avg.). The results of Table 1 are plotted in FIGS. 4a and 4b. FIG. 4a plots the slopes for each concentration at both 100% and 50% levels. FIG. 4b plots the difference in slopes between the 100% and 50% dilution levels for each concentration. […] Such irregularity makes reliable testing and analysis decision making difficult. […]
# [3] = tested on: platelets; test: Ristocetin dilution test (factor assay), PAP-8E aggregometer with short-wavelength LED; settings: for 100% Avg. / 100% Slope: 100% level
# Method: as §1, §2
# The most common use of aggregation in the United States is a test method called the Ristocetin Cofactor Assay. This assay uses standard lyophilized platelets and a plasma that contains a factor. This method uses a standard curve where the standard plasma is diluted to concentrations of 100% to 25%.
# [4] = Ristocetin 8.5 mg/ml diluted to 50%
# [5] = Ristocetin 9.0 mg/ml diluted to 50%
# [6] = Ristocetin 9.5 mg/ml diluted to 50%
# [7] = Ristocetin 10.0 mg/ml diluted to 50%
# [8] = Ristocetin 10.5 mg/ml diluted to 50%
# [9] = Ristocetin 11.0 mg/ml diluted to 50%
molecule,measurement,setting,value
Nc1ncnc2c1ncn2[C@@H]1O[C@H](COP(=O)(O)OP(=O)(O)O)[C@@H](O)[C@H]1O [ADP],Average Slope,[1],41.3
same,Average % Agg.,[1],72.6%
CCCCC/C=C\C/C=C\C/C=C\C/C=C\CCCC(=O)O [Arachidonic Acid],Average Slope,[1],38.9
same,Average % Agg.,[1],73.5%
CNC[C@H](O)c1ccc(O)c(O)c1 [Epinephrine],Average Slope,[1],30.5
same,Average % Agg.,[1],73.1%
Collagen,Average Slope,[1],44.0
same,Average % Agg.,[1],74.9%
ristocetin,50% Avg.,[2]; [4],29.5
same,50% Slope,[2]; [4],29.0 and 30.0
same,100% Avg.,[2]; Ristocetin 8.5 mg/ml,42.0
same,100% Slope,[2]; Ristocetin 8.5 mg/ml,42.0
same,Difference 100 − 50,[2]; Ristocetin 8.5 mg/ml,12.5
same,50% Avg.,[2]; [5],33.5
same,50% Slope,[2]; [5],32.0 and 35.0
same,100% Avg.,[2]; Ristocetin 9.0 mg/ml,46.5
same,100% Slope,[2]; Ristocetin 9.0 mg/ml,47.0 and 46.0
same,Difference 100 − 50,[2]; Ristocetin 9.0 mg/ml,13.0
same,50% Avg.,[2]; [6],32.0
same,50% Slope,[2]; [6],33.0 and 31.0
same,100% Avg.,[2]; Ristocetin 9.5 mg/ml,40.5
same,100% Slope,[2]; Ristocetin 9.5 mg/ml,41.0 and 40.0
same,Difference 100 − 50,[2]; Ristocetin 9.5 mg/ml,8.5
same,50% Avg.,[2]; [7],33.5
same,50% Slope,[2]; [7],33.0 and 34.0
same,100% Avg.,[2]; Ristocetin 10.0 mg/ml,43.5
same,100% Slope,[2]; Ristocetin 10.0 mg/ml,41.0 and 46.0
same,Difference 100 − 50,[2]; Ristocetin 10.0 mg/ml,10.0
same,50% Avg.,[2]; [8],33.0
same,50% Slope,[2]; [8],31.0 and 35.0
same,100% Avg.,[2]; Ristocetin 10.5 mg/ml,39.5
same,100% Slope,[2]; Ristocetin 10.5 mg/ml,39.0 and 40.0
same,Difference 100 − 50,[2]; Ristocetin 10.5 mg/ml,6.5
same,50% Avg.,[2]; [9],28.5
same,50% Slope,[2]; [9],28.0 and 29.0
same,100% Avg.,[2]; Ristocetin 11.0 mg/ml,36.5
same,100% Slope,[2]; Ristocetin 11.0 mg/ml,41.0 and 32.0
same,Difference 100 − 50,[2]; Ristocetin 11.0 mg/ml,8.0
same,Difference 100 − 50,[3]; Ristocetin 8.5 mg/ml,2.5
same,50% Avg.,[3]; [4],23.0
same,50% Slope,[3]; [4],22.0 and 24.0
same,100% Avg.,[3]; Ristocetin 8.5 mg/ml,25.5
same,100% Slope,[3]; Ristocetin 8.5 mg/ml,23.0 and 28.0
same,Difference 100 − 50,[3]; Ristocetin 9.0 mg/ml,5.0
same,50% Avg.,[3]; [5],26.5
same,50% Slope,[3]; [5],28.0 and 25.0
same,100% Avg.,[3]; Ristocetin 9.0 mg/ml,31.5
same,100% Slope,[3]; Ristocetin 9.0 mg/ml,32.0 and 31.0
same,Difference 100 − 50,[3]; Ristocetin 9.5 mg/ml,8.0
same,50% Avg.,[3]; [6],23.5
same,50% Slope,[3]; [6],24.0 and 23.0
same,100% Avg.,[3]; Ristocetin 9.5 mg/ml,31.5
same,100% Slope,[3]; Ristocetin 9.5 mg/ml,31.0 and 32.0
same,Difference 100 − 50,[3]; Ristocetin 10.0 mg/ml,9.0
same,50% Avg.,[3]; [7],21.5
same,50% Slope,[3]; [7],22.0 and 21.0
same,100% Avg.,[3]; Ristocetin 10.0 mg/ml,30.5
same,100% Slope,[3]; Ristocetin 10.0 mg/ml,31.0 and 30.0
same,Difference 100 − 50,[3]; Ristocetin 10.5 mg/ml,8.0
same,50% Avg.,[3]; [8],23.5
same,50% Slope,[3]; [8],21.0 and 26.0
same,100% Avg.,[3]; Ristocetin 10.5 mg/ml,31.5
same,100% Slope,[3]; Ristocetin 10.5 mg/ml,30.0 and 33.0
same,Difference 100 − 50,[3]; Ristocetin 11.0 mg/ml,4.0
same,50% Avg.,[3]; [9],27.5
same,50% Slope,[3]; [9],29.0 and 26.0
same,100% Avg.,[3]; Ristocetin 11.0 mg/ml,31.5
same,100% Slope,[3]; Ristocetin 11.0 mg/ml,30.0 and 33.0
